# Data reported in patent US20020151712A1, “3-pyrrolidinyloxy-3'-pyridyl ether compounds useful for controlling chemical synaptic transmission” (priority 1999, published 2002).
# Structures can show the parent of a compound that is named as a salt.
# Columns and labels:
# [1] = molecular target: neuronal nicotinic acetylcholine receptors (Rattus norvegicus, UniProt P09483+P12390); experiment: [3H]-cytisine binding to neuronal nicotinic acetylcholine receptors, crude synaptic membranes from whole rat brain; settings: [3H]-CYT 1.25 nM, 60 minutes at 4° C., Ki from IC50 by Cheng and Prusoff correction
# Protocol: The in vitro protocols for determination of nicotinic acetylcholine channel receptor binding potencies of ligands was determined as follows.
# Binding of [^3H]-cytisine ([^3H]-CYT) to neuronal nicotinic acetylcholine receptors was accomplished using crude synaptic membrane preparations from whole rat brain (Pabreza et al., Molecular Pharmacol., 1990, v. 39, p. 9). Washed membranes were stored at −80° C. prior to use. Frozen aliquots were slowly thawed and resuspended in 20 volumes of buffer (containing: 120 mM NaCl, 5 mM KCl, 2 mM MgCl2, 2 mM CaCl2 and 50 mM Tris-Cl, pH 7.4 at 4° C.). After centrifuging at 20,000×g for 15 minutes, the pellets were resuspended in 30 volumes of buffer.
# The test compounds were dissolved in water to make 10 mM stock solutions. […]
# Homogenate (containing 125-150 μg protein) was added to triplicate tubes containing the range of concentrations of test compound described above and [^3H]-CYT (1.25 nM) in a final volume of 500 μl. […] The filters are counted in 4 mL of Ecolume® (ICN). Nonspecific binding was determined in the presence of 10 μM (−)-nicotine and values were expressed as a percentage of total binding. IC50 values were determined with a four-parameter non-linear regression and IC50 values were converted to Ki values using the Cheng and Prusoff correction (Ki=IC50/(1+[ligand]/Kd of ligand).
# [2] = test system: mice; experiment: mouse hot plate paradigm (analgesia); type: in vivo; settings: mouse hot plate 55° C., intraperitoneal, dosed 30 minutes prior to testing, increase in tenth jump latency relative to control
# Protocol: An in vivo protocol was utilized to determine the effectiveness of nicotinic acetylcholine receptor ligands as analgesic agents in the mouse hot plate paradigm. Separate groups of mice, (n=8/group) were utilized for each dose group. All drugs were administered by the intraperitoneal route of administration. Test drugs were dissolved in water to make a 6.2 mM stock solution. Animals were dosed with this solution (10 mL/kg body weight) for a 62 micromol/kg dose. Lower doses were administered similarly, following serial dilution of the stock solution in half-log increments. Animals were dosed 30 minutes prior to testing in the hot plate. The hot-plate utilized was an automated analgesia monitor (Model #AHP16AN, Omnitech Electronics, Inc. of Columbus, Ohio). The temperature of the hot plate was maintained at 55° C. and a cut-off time of 180 seconds was utilized. Latency until the tenth jump was recorded as the dependent measure. An increase in the tenth jump latency relative to the control was considered an effect.
# Chain of neuronal nicotinic acetylcholine receptors (P09483 31-630): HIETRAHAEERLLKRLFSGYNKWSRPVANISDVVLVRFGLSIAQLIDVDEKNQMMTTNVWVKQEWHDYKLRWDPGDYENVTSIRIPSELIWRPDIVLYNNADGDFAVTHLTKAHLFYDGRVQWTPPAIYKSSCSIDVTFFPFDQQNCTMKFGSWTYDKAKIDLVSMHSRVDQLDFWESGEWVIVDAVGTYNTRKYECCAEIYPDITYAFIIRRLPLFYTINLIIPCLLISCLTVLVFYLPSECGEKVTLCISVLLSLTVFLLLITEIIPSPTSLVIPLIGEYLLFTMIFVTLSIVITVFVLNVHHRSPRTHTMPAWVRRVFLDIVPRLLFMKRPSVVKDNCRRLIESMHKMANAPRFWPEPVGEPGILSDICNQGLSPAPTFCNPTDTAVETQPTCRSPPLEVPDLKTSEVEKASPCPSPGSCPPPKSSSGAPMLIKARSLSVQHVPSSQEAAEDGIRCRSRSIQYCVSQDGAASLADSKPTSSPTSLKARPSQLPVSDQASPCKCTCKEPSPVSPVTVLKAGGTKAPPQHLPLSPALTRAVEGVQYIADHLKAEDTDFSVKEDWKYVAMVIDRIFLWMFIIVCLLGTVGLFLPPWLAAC
# Chain of neuronal nicotinic acetylcholine receptors (P12390 25-500): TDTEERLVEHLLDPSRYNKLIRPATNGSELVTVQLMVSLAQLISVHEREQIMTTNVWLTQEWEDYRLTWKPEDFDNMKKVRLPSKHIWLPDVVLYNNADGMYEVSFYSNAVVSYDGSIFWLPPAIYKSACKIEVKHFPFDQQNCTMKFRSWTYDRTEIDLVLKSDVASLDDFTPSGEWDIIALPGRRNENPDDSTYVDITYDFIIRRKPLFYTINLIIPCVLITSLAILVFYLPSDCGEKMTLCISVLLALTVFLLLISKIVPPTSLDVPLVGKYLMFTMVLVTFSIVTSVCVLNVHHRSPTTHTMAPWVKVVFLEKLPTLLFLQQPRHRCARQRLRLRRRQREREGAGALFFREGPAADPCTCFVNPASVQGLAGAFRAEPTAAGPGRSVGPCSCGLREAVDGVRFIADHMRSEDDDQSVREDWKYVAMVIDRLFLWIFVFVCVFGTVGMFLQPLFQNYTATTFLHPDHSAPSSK
SMILES,melting point,further results
"Clc1ncc(OC[C@@H]2CCNC2)cc1Br [Example 35, 3-Bromo-2-chloro-5-(3-(R)-pyrrolidinylmethoxy)pyridine 4-methyl benzenesulfonate]",,Ki [1]: 0.021 nM
"Cc1ccc(S(=O)(=O)O)cc1.Cc1cncc(OCC2CCNC2)c1 (stereo not drawn) [Example 27, 5-methyl-3-(3-pyrrolidinylmethoxy)pyridine tosylate]",,"minimally effective dose (MED), Dosage [2]: 19 µmol/kg"
"Cl.c1ncc(-c2cncc(O[C@H]3CCNC3)c2)cn1 [Example 11, 3-(3-(S)-pyrrolidinyloxy)-5-(5-pyrimidyl)pyridine hydrochloride]",60 to 62 °C,
"Clc1ncc(OCC2CCNC2)cc1Br (stereo not drawn) [Example 25, 3-Bromo-2-chloro-5-(3-pyrrolidinylmethoxy)pyridine toluenesulfonate]",,"minimally effective dose (MED), Dosage [2]: 6.2 µmol/kg"
"CN1CC[C@@H](Oc2cncc(C=Cc3ccncc3)c2)C1.Cl [Example 5, 3-(1-Methyl-3-(R)-pyrrolidinyloxy)-5-(2-(4-pyridyl)ethenyl)pyridine hydrochloride]",88 to 90 °C,
"Clc1ncc(OCC2CCNC2)cc1Br (stereo not drawn) (as salt: toluenesulfonate) [Example 25, 3-Bromo-2-chloro-5-(3-pyrrolidinylmethoxy)pyridine toluenesulfonate]",105 to 107 °C,
"CN1CCC(COc2cnc(Cl)c(Br)c2)C1 (stereo not drawn) [Example 26, 3-Bromo-2-chloro-5-(1-methyl-3-pyrrolidinylmethoxy) pyridine toluenesulfonate]",,"minimally effective dose (MED), Dosage [2]: 62 µmol/kg"
CN1CC[C@H](Oc2cnc(Cl)c(C=Cc3ccncc3)c2)C1.Cl,106 to 108 °C,
"CC(C)(C)C=CC=Cc1cncc(O[C@H]2CCNC2)c1 (as salt: hydrochloride) [Example 7, 3-(3-(S)-Pyrrolidinyloxy-5-(5,5-dimethylhexadienyl)pyridine hydrochloride]",148 °C (dec.),
"CCCCCCC#Cc1cncc(O[C@@H]2CCN(C)C2)c1.Cl [Example 10, 3-(1-N-Methyl-3-(R)-pyrrolidinyloxy)-5-(1-octynyl)pyridine hydrochloride]",133 to 135 °C,
"CCCCCCC#Cc1cncc(O[C@H]2CCNC2)c1.Cl [Example 8, 3-(3-(S)-pyrrolidinyloxy)-5-(1-octynyl)pyridine hydrochloride]",66 to 68 °C,
"Cc1ccc(OC2CCCCNC2)cn1 (stereo not drawn) [Example 29, 3-(6-Methylpyridinyl-3-oxy)perhydroazepine dihydrochloride]",,"minimally effective dose (MED), Dosage [2]: 62 µmol/kg"

# More lines, main results first:
melting point,SMILES,further results
208 °C (dec.),"Cl.Nc1cccc(-c2cncc(O[C@H]3CCNC3)c2)c1 [Example 14, 3-(3-(S)-Pyrrolidinyloxy)-5-(3-aminophenyl)pyridine hydrochloride]",
75 to 77 °C,"CN1CCC(COc2ccc(Cl)nc2)C1 (stereo not drawn) (as salt: toluenesulfonate) [Example 32, 2-Chloro-5-(1-methylpyrrolidinyl-3-methoxy)pyridine p-toluenesulfonate]",
65 °C (dec.),"Cl.Clc1ccc(-c2cncc(O[C@H]3CCNC3)c2)cc1 [Example 21, 3-(3-(S)-Pyrrolidinyloxy)-5-(4-chlorophenyl)pyridine hydrochloride]",
121 to 122 °C,"Fc1ccc(OC2CCCCNC2)cn1 (stereo not drawn) (as salt: hydrochloride) [Example 30, 3-(6-Fluoropyridinyl-3-oxy)perhydroazepine hydrochloride]",
82 to 84 °C,"Clc1cc(OCC2CCNC2)cnc1Cl (stereo not drawn) (as salt: toluenesulfonate) [Example 33, 2,3-Dichloro-5-(pyrrolidinyl-3-methoxy)pyridine p-toluenesulfonate]",
60 °C (dec.),"Cl.c1ccc(-c2cncc(O[C@H]3CCNC3)c2)cc1 [Example 15, 3-(3-(S)-Pyrrolidinyloxy)-5-phenylpyridine hydrochloride]",
201 to 203 °C,"c1csc(-c2cncc(O[C@@H]3CCNC3)c2)c1 (as salt: hydrochloride) [Example 19, 3-(3-(R)-Pyrrolidinyloxy)-5-thienylpyridine hydrochloride]",
67 to 69 °C,"Cl.c1ncc(-c2cncc(O[C@@H]3CCNC3)c2)cn1 [Example 13, 3-(3-(R)-Pyrrolidinyloxy)-5-(5-pyrimidinyl)pyridine hydrochloride]",
88 to 90 °C,"CN1CC[C@H](Oc2cncc(-c3ccccc3)c2)C1.Cl [Example 16, 3-(1-Methyl-3-(S)-pyrrolidinyloxy)-5-phenylpyridine hydrochloride]",
180 °C (dec.),"CN1CC[C@H](Oc2cnc(Cl)c(Br)c2)C1.Cl [Example 23, 3-(1-N-Methyl-3-(S)-pyrrolidinyloxy)-5-bromo-6-chloropyridine hydrochloride]",
178 to 180 °C,"Cl.Clc1ncc(O[C@H]2CCNC2)cc1Br [Example 22, 3-(3-(S)-Pyrrolidinyloxy)-5-bromo-6-chloropyridine hydrochloride]",
60 °C (dec.),"Cl.c1ccc(-c2cncc(O[C@@H]3CCNC3)c2)cc1 [Example 17, 3-(3-(R)-Pyrrolidinyloxy)-5-phenylpyridine hydrochloride]",
